Reference: US7652153B2, “Caspase inhibitors and uses thereof” (Vertex Pharmaceuticals Incorporated, priority 2004, dated 2010)

Key:
[1] = target: caspase-8 (Homo sapiens, UniProt Q14790); assay: Caspase-8 enzyme inhibition (Ki, method of Margolin et al.); format: biochemical; conditions: Ac-DEVD-pNA substrate 80 μM, 37° C., pH 7.5; read-out: Ki C8
Procedure: (§1) Compounds of this invention may be tested using the methods described below.
(§2) In Vitro Assays Enzyme Inhibition
(§3) Ki values for test compounds with caspase-1 and caspase-8 were obtained by the method of Margolin et al. (J. Biol. Chem., 272 pp. 7223-7228 (1997)). Other caspases may be assayed similarly (see, e.g., WO 99/47545). Assays were performed in 10 mM Tris (Sigma Corp, St Louis Mo.) pH 7.5, 1 mM Dithiothreitol (DTT, Research Organic INC, Cleveland, Ohio) and 0.1% CHAPS (Pierce, Rockford Ill.) at 37° C. For caspase-3, a solution of 8% glycerol was added to the assay buffer to improve enzyme stability. A 65 μL aliquot of the assay buffer and 5 μL aliquot of the appropriate dilutions of inhibitor in DMSO where pipetted into a 96 well plate, treated with 10 μL of caspase, then diluted in assay buffer (0.5-40 nM active protein by active site titration). A control containing DMSO but no compound was included for each determination. The plates were then incubated for 15 minutes at 37° C., before addition of the appropriate substrate (20 μL, final concentration 1-4×KM, final assay volume 100 μL) to initiate the reaction. Reaction rates were measured at 37° C. either by following the time dependant increase in absorbance at 405 nm (for the pNA substrates) or in fluorescence (Ex 390, Em 460) (for the AMC substrates). The rates obtained were plotted against inhibitor concentration and the data fit to the Morrison tight-binding equation for competitive inhibitors (Morrison, J. F., Biochem. Biophys. Acta, 185 pp. 269-286 (1969)). The substrates used for the individual assays were as follows:
Caspase-8 Ac-DEVD-pNA (Bachem, King of Prussia, Pa.) (final concentration in assay 80 μM).

[2] = target: T1, caspase-1 (Homo sapiens, UniProt P29466); assay: Caspase-1 enzyme inhibition (Ki, method of Margolin et al.); format: biochemical; conditions: Suc-YVAD-pNA substrate 80 μM, 37° C., pH 7.5; read-out: Ki C1
T1 sequence (P29466 120-297 limits assumed): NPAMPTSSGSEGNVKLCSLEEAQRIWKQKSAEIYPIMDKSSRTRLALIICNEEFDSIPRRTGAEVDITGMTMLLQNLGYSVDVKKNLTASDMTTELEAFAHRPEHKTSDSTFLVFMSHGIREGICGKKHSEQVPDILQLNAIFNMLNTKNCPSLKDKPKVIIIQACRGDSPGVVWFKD
T1 sequence (P29466 317-404 limits assumed): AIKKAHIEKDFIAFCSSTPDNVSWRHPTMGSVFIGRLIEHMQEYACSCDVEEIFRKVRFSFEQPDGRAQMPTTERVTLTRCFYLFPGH
Procedure: as §1, §2, §3
Caspase-1 Suc-YVAD-pNA (Bachem, King of Prussia, Pa.) (final concentration in the assay 80 μM);

Sequence of caspase-8 (Q14790 217-374 limits assumed, species assumed): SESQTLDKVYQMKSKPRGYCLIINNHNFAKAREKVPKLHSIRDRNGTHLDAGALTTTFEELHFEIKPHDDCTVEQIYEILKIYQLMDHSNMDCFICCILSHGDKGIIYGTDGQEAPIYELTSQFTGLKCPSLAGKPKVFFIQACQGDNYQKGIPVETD
Sequence of caspase-8 (Q14790 385-479 limits assumed, species assumed): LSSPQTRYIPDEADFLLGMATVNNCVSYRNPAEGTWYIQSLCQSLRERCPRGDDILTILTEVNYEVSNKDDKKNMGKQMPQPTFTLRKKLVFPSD

| SMILES | Ki [1] | Ki [2] |
| --- | --- | --- |
| CC(C)[C@H](NC(=O)c1cccc(C(F)(F)F)c1Cl)C(=O)N1CCC[C@H]1C(=O)N[C@H](C=O)CC(=O)O [II-9, (S,S,S)-(3S)-({1-[(2S)-(2-Chloro-3-trifluoromethyl-benzoylamino)-3-methyl-butyryl]-pyrrolidine-(2S)-carbonyl}-amino)-4-oxo-butyric acid] | 10 to 20 nM | < 10 nM |
| Cc1c(Cl)cccc1C(=O)N[C@H](C(=O)N1CCC[C@H]1C(=O)N[C@H](C=O)CC(=O)O)C(C)C [II-10, (S,S,S)-(3S)-({1-[(2S)-(3-Chloro-2-methyl-benzoylamino)-3-methyl-butyryl]-pyrrolidine-(2S)-carbonyl}-amino)-4-oxo-butyric acid] | 10 to 20 nM | < 10 nM |
| CC(C)[C@H](NC(=O)c1ccc(Cl)cc1Cl)C(=O)N1CCC[C@H]1C(=O)N[C@H](C=O)CC(=O)O [II-11, (S,S,S)-(3S)-({1-[(2S)-(2,4-Dichloro-benzoylamino)-3-methyl-butyryl]-pyrrolidine-(2S)-carbonyl}-amino)-4-oxo-butyric acid] | 21 to 30 nM | < 10 nM |
| CC(C)[C@H](NC(=O)c1cc(Cl)ccc1Cl)C(=O)N1CCC[C@H]1C(=O)N[C@H](C=O)CC(=O)O [II-12, (S,S,S)-(3S)-({1-[(2S)-(2,5-Dichloro-benzoylamino)-3-methyl-butyryl]-pyrrolidine-(2S)-carbonyl}-amino)-4-oxo-butyric acid] | 10 to 20 nM | < 10 nM |
| CC(C)[C@H](NC(=O)c1c(Cl)cccc1Cl)C(=O)N1CCC[C@H]1C(=O)N[C@H](C=O)CC(=O)O [II-13, (S,S,S)-(3S)-({1-[(2S)-(2,6-Dichloro-benzoylamino)-3-methyl-butyryl]-pyrrolidine-(2S)-carbonyl}-amino)-4-oxo-butyric acid] | 10 to 20 nM | 10 to 20 nM |
| Cc1cccc(C)c1C(=O)N[C@H](C(=O)N1CCC[C@H]1C(=O)N[C@H](C=O)CC(=O)O)C(C)C [II-14, (S,S,S)-(3S)-({1-[(2S)-(2,6-Methyl-benzoylamino)-3-methyl-butyryl]-pyrrolidine-(2S)-carbonyl}-amino)-4-oxo-butyric acid] | < 10 nM | 10 to 20 nM |
| Cc1ncccc1C(=O)N[C@H](C(=O)N1CCC[C@H]1C(=O)N[C@H](C=O)CC(=O)O)C(C)C [II-15, (S,S,S)-(3S)-[(1-{3-Methyl-(2S)-[(2-methyl-pyridine-3-carbonyl)-amino]-butyryl}-pyrrolidine-(2S)-carbonyl)-amino]-4-oxo-butyric acid] | 21 to 30 nM | < 10 nM |
| Cc1ccncc1C(=O)N[C@H](C(=O)N1CCC[C@H]1C(=O)N[C@H](C=O)CC(=O)O)C(C)C [II-16, (S,S,S)-(3S)-[(1-{3-Methyl-(2S)-[(4-methyl-pyridine-3-carbonyl)-amino]-butyryl}-pyrrolidine-(2S)-carbonyl)-amino]-4-oxo-butyric acid] | 21 to 30 nM | < 10 nM |
| Cc1ccsc1C(=O)N[C@H](C(=O)N1CCC[C@H]1C(=O)N[C@H](C=O)CC(=O)O)C(C)C [II-17, (S,S,S)-(3S)-[(1-{3-Methyl-(2S)-[(3-methyl-thiophene-2-carbonyl)-amino]-butyryl}-pyrrolidine-(2S)-carbonyl)-amino]-4-oxo-butyric acid] | < 10 nM | < 10 nM |
| CC(C)[C@H](NC(=O)c1ccnc(Cl)c1Cl)C(=O)N1CCC[C@H]1C(=O)N[C@H](C=O)CC(=O)O [II-18, (S,S,S)-(3S)-[(1-{(2S)-[(2,3-Dichloro-pyridine-4-carbonyl)-amino]-3-methyl-butyryl}-pyrrolidine-(2S)-carbonyl)-amino]-4-oxo-butyric acid] | 10 to 20 nM | < 10 nM |
| CC(C)[C@H](NC(=O)c1c(Cl)cncc1Cl)C(=O)N1CCC[C@H]1C(=O)N[C@H](C=O)CC(=O)O [II-19, (S,S,S)-(3S)-[(1-{(2S)-[(3,5-Dichloro-pyridine-4-carbonyl)-amino]-3-methyl-butyryl}-pyrrolidine-(2S)-carbonyl)-amino]-4-oxo-butyric acid] | < 10 nM | 10 to 20 nM |
| COc1cccc(C(=O)N[C@H](C(=O)N2CCC[C@H]2C(=O)N[C@H](C=O)CC(=O)O)C(C)(C)C)c1C [II-20, (S,S,S)-(3S)-({1-[(2S)-(3-Methoxy-2-methyl-benzoylamino)-3,3-dimethyl-butyryl]-pyrrolidine-(2S)-carbonyl}-amino)-4-oxo-butyric acid] | < 10 nM | < 10 nM |
| COc1cccc(C(=O)N[C@@H](CC(F)(F)F)C(=O)N2CCC[C@H]2C(=O)N[C@H](C=O)CC(=O)O)c1C [II-21, (S,S,S)-4-Oxo-(3S)-({1-[4,4,4-trifluoro-(2S)-(2-methyl-3-methoxy-benzoylamino)-butyryl]-pyrrolidine-(2S)-carbonyl}-amino)-butyric acid] | 21 to 30 nM | < 10 nM |
| COc1ccc(C)c(C(=O)N[C@H](C(=O)N2CCC[C@H]2C(=O)N[C@H](C=O)CC(=O)O)C(C)C)c1 [II-22, (S,S,S)-(3S)-({1-[(2S)-(5-Methoxy-2-methyl-benzoylamino)-3-methyl-butyryl]-pyrrolidine-(2S)-carbonyl}-amino)-4-oxo-butyric acid] | 21 to 30 nM | < 10 nM |
| COc1cccc(C(=O)N[C@@H](Cc2cscn2)C(=O)N2CCC[C@H]2C(=O)N[C@H](C=O)CC(=O)O)c1C [II-23, (S,S,S)-(3S)-({1-[(2S)-(3-Methoxy-2-methyl-benzoylamino)-3-thiazol-4-yl-propionyl]-pyrrolidine-(2S)-carbonyl}-amino)-4-oxo-butyric acid] | 21 to 30 nM | < 10 nM |
| O=C[C@H](CC(=O)O)NC(=O)[C@@H]1CCCN1C(=O)[C@H](CC(F)(F)F)NC(=O)c1ccccc1Cl [II-24, (S,S,S)-(3S)-({1-[(2S)-(2-Chloro-benzoylamino)-4,4,4-trifluoro-butyryl]-pyrrolidine-(2S)-carbonyl}-amino)-4-oxo-butyric acid] | 21 to 30 nM | < 10 nM |
| O=C[C@H](CC(=O)O)NC(=O)[C@@H]1CCCN1C(=O)[C@H](Cc1cscn1)NC(=O)c1ccccc1Cl [II-25, (S,S,S)-(3S)-({1-[(2S)-(2-Chloro-benzoylamino)-3-thiazol-4-yl-propionyl]-pyrrolidine-(2S)-carbonyl}-amino)-4-oxo-butyric acid] | 21 to 30 nM | < 10 nM |
| Cc1ccccc1C(=O)N[C@H](C(=O)N1CCC[C@H]1C(=O)N[C@H](C=O)CC(=O)O)C(C)(C)C [II-26, (S,S,S)-(3S)-({1-[3,3-Dimethyl-(2S)-(2-methyl-benzoylamino)-butyryl]-pyrrolidine-(2S)-carbonyl}-amino)-4-oxo-butyric acid] | < 10 nM | < 10 nM |
| CC(C)[C@H](NC(=O)c1ccccc1C(F)(F)F)C(=O)N1CCC[C@H]1C(=O)N[C@H](C=O)CC(=O)O [II-27, (S,S,S)-(3S)-({1-[3-Methyl-(2S)-(2-trifluoromethyl-benzoylamino)-butyryl]-pyrrolidine-(2S)-carbonyl}-amino)-4-oxo-butyric acid] | < 10 nM | < 10 nM |
| CC(C)(C)[C@H](NC(=O)c1ccccc1Cl)C(=O)N1CCC[C@H]1C(=O)N[C@H](C=O)CC(=O)O [II-28, (S,S,S)-(3S)-({1-[(2S)-(2-Chloro-benzoylamino)-3,3-dimethyl-butyryl]-pyrrolidine-(2S)-carbonyl}-amino)-4-oxo-butyric acid] | < 10 nM | < 10 nM |
